Results taken from US20210045385A1, “PYRIDAZINONE-SUBSTITUTED KETOXIMES AS HERBICIDES” (FMC Corporation, priority 2018, published 2021).

Columns and labels:
Assay type in all cases: in vivo
[1] = tested on: barnyardgrass (Echinochloa crus-galli); experiment: Test A preemergence, visual plant response rating; settings: for Barnyardgrass plant response rating: 125 g ai/ha, preemergence, 0 to 100 scale, 0 no effect, 100 complete control; for Barnyardgrass plant response rating (0 to 100 scale): 500 g ai/ha Preemergence, approx. 10 days
In short: (§1)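 Greenhouse pot test in loam–sand soil mix: compound in a surfactant-containing non-phytotoxic solvent applied preemergence (directed soil spray) or postemergence (one- to two-leaf plants, 2–10 cm). Injury scored visually after ~10 days, 0–100.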

kochia (Kochia scoparia) [2] = experiment: Test A preemergence, visual plant response rating; settings: for Kochia plant response rating: 125 g ai/ha, preemergence, 0 to 100 scale, 0 no effect, 100 complete control; for Kochia plant response rating (0 to 100 scale): 500 g ai/ha Preemergence, approx. 10 days
In short: as §1

[3] = tested on: ragweed (common ragweed, Ambrosia elatior); experiment: Test A preemergence, visual plant response rating; settings: for Ragweed plant response rating: 125 g ai/ha, preemergence, 0 to 100 scale, 0 no effect, 100 complete control; for Ragweed plant response rating (0 to 100 scale): 500 g ai/ha Preemergence, approx. 10 days
In short: as §1

[4] = tested on: pigweed (Amaranthus retroflexus); experiment: Test A preemergence, visual plant response rating; settings: for Pigweed plant response rating: 125 g ai/ha, preemergence, 0 to 100 scale, 0 no effect, 100 complete control; for Pigweed plant response rating (0 to 100 scale): 500 g ai/ha Preemergence, approx. 10 days
In short: as §1

[5] = tested on: Italian ryegrass (Lolium multiflorum); experiment: Test A preemergence, visual plant response rating; settings: for Ryegrass, Italian plant response rating: 125 g ai/ha, preemergence, 0 to 100 scale, 0 no effect, 100 complete control; for Ryegrass, Italian plant response rating (0 to 100 scale): 500 g ai/ha Preemergence, approx. 10 days
In short: as §1

[6] = tested on: foxtail, giant (giant foxtail, Setaria faberii); experiment: Test A preemergence, visual plant response rating; settings: for Foxtail, Giant plant response rating: 125 g ai/ha, preemergence, 0 to 100 scale, 0 no effect, 100 complete control; for Foxtail, Giant plant response rating (0 to 100 scale): 500 g ai/ha Preemergence, approx. 10 days
In short: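 Ratings 0–100 (100 = complete control), visual, vs untreated controls at ~10 days. Application pre- or postemergence; solvent mixture with surfactant; loam/sand medium.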

[7] = tested on: blackgrass (Alopecurus myosuroides); experiment: Test A postemergence, visual plant response rating; settings: for Blackgrass plant response rating (0 to 100 scale): 500 g ai/ha, postemergence, 0 is no effect, 100 is complete control; for Blackgrass plant response rating: Postemergence, 125 g ai/ha, 0 to 100 scale (0 no effect, 100 complete control)
In short: as §1

[8] = tested on: barnyardgrass (Echinochloa crus-galli); experiment: Test A postemergence, visual plant response rating; settings: for Barnyardgrass plant response rating (0 to 100 scale): 500 g ai/ha, postemergence, 0 is no effect, 100 is complete control; for Barnyardgrass plant response rating: Postemergence, 125 g ai/ha, 0 to 100 scale (0 no effect, 100 complete control)
In short: as §1

[9] = tested on: galium (catchweed bedstraw, Galium aparine); experiment: Test A postemergence, visual plant response rating; settings: for Galium plant response rating (0 to 100 scale): 500 g ai/ha, postemergence, 0 is no effect, 100 is complete control; for Galium plant response rating: Postemergence, 125 g ai/ha, 0 to 100 scale (0 no effect, 100 complete control)
In short: as §1

kochia (Kochia scoparia) [10] = experiment: Test A postemergence, visual plant response rating; settings: for Kochia plant response rating (0 to 100 scale): 500 g ai/ha, postemergence, 0 is no effect, 100 is complete control; for Kochia plant response rating: Postemergence, 125 g ai/ha, 0 to 100 scale (0 no effect, 100 complete control)
In short: as §1

[11] = tested on: ragweed (common ragweed, Ambrosia elatior); experiment: Test A postemergence, visual plant response rating; settings: for Ragweed plant response rating (0 to 100 scale): 500 g ai/ha, postemergence, 0 is no effect, 100 is complete control; for Ragweed plant response rating: Postemergence, 125 g ai/ha, 0 to 100 scale (0 no effect, 100 complete control)
In short: as §1

corn (Zea mays) = experiment: Test A postemergence, visual plant response rating; settings: for Corn plant response rating (0 to 100 scale): 500 g ai/ha, postemergence, 0 is no effect, 100 is complete control; for Corn plant response rating: Postemergence, 125 g ai/ha, 0 to 100 scale (0 no effect, 100 complete control)
In short: as §1

[12] = tested on: pigweed (Amaranthus retroflexus); experiment: Test A postemergence, visual plant response rating; settings: for Pigweed plant response rating (0 to 100 scale): 500 g ai/ha, postemergence, 0 is no effect, 100 is complete control; for Pigweed plant response rating: Postemergence, 125 g ai/ha, 0 to 100 scale (0 no effect, 100 complete control)
In short: as §1

[13] = tested on: Italian ryegrass (Lolium multiflorum); experiment: Test A postemergence, visual plant response rating; settings: for Ryegrass, Italian plant response rating: 125 g ai/ha, 0 to 100 scale (0 no effect, 100 complete control)
In short: as §1

[14] = tested on: wheat (Triticum aestivum); experiment: Test A postemergence, visual plant response rating; settings: for Wheat plant response rating: 125 g ai/ha, 0 to 100 scale (0 no effect, 100 complete control)
In short: as §1

[15] = tested on: foxtail, giant (giant foxtail, Setaria faberii); experiment: Test A postemergence, visual plant response rating; settings: for Foxtail, Giant plant response rating (0 to 100 scale): 500 g ai/ha, postemergence, 0 is no effect, 100 is complete control; for Foxtail, Giant plant response rating: Postemergence, 125 g ai/ha, 0 to 100 scale (0 no effect, 100 complete control)
In short: as §1

[16] = tested on: barnyardgrass (Echinochloa crus-galli); experiment: Test B flooded paddy test, visual plant response rating; settings: 250 g ai/ha, Flood, applied to paddy water, 2-leaf stage, evaluated after 13 to 15 days
In short: (§2)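 Rice, umbrella sedge, ducksalad and barnyardgrass grown to 2-leaf stage; pots flooded 3 cm above soil and compound applied directly to paddy water, depth maintained.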

[17] = tested on: ducksalad (Heteranhera limosa); experiment: as above; settings: 250 g ai/ha, Flood, applied to paddy water, 2-leaf stage, evaluated after 13 to 15 days
In short: as §2

rice (Oryza sativa) = experiment: as above; settings: 250 g ai/ha, Flood, applied to paddy water, 2-leaf stage, evaluated after 13 to 15 days
In short: as §2

[18] = tested on: sedge, umbrella (small-flower umbrella sedge, Cyperus difformis); experiment: as above; settings: 250 g ai/ha, Flood, applied to paddy water, 2-leaf stage, evaluated after 13 to 15 days
In short: as §2

[19] = 500 g ai/ha, postemergence, 0 is no effect, 100 is complete control

| SMILES | Barnyardgrass plant response rating [1] | Barnyardgrass plant response rating (0 to 100 scale) [1] | Kochia plant response rating (kochia (Kochia scoparia) [2]) | Kochia plant response rating (0 to 100 scale) (kochia (Kochia scoparia) [2]) | Ragweed plant response rating [3] | Ragweed plant response rating (0 to 100 scale) [3] | Pigweed plant response rating [4] | Pigweed plant response rating (0 to 100 scale) [4] | Ryegrass, Italian plant response rating [5] | Ryegrass, Italian plant response rating (0 to 100 scale) [5] | Foxtail, Giant plant response rating [6] | Foxtail, Giant plant response rating (0 to 100 scale) [6] | Blackgrass plant response rating (0 to 100 scale) [7] | Blackgrass plant response rating [7] | Barnyardgrass plant response rating (0 to 100 scale) [8] | Barnyardgrass plant response rating [8] | Galium plant response rating (0 to 100 scale) [9] | Galium plant response rating [9] | Kochia plant response rating (0 to 100 scale) (kochia (Kochia scoparia) [10]) | Kochia plant response rating (kochia (Kochia scoparia) [10]) | other results |
| --- | --- | --- | --- | --- | --- | --- | --- | --- | --- | --- | --- | --- | --- | --- | --- | --- | --- | --- | --- | --- | --- |
| CO/N=C(\c1c(O)c(Cl)nn(C)c1=O)c1cccc2ccccc12 [Compound 129, 6-chloro-5-hydroxy-4-[(Z)-(methoxyimino)-1-naphthalenylmethyl]-2-methyl-3(2H)-pyridazinone] | 60 | 80 | 10 | 50 | 70 | 100 | 10 | 90 | 0 | 0 | 60 | 80 | 70 | 30 | 50 | 30 | 90 | 80 | 80 | 70 | Ragweed plant response rating (0 to 100 scale) [11]: 100; Ragweed plant response rating [11]: 90; Corn plant response rating (0 to 100 scale) (corn (Zea mays)): 0; Corn plant response rating (corn (Zea mays)): 0; Pigweed plant response rating (0 to 100 scale) [12]: 70; Pigweed plant response rating [12]: 40; Ryegrass, Italian plant response rating (0 to 100 scale) [13, 19]: 10; Ryegrass, Italian plant response rating ([13]; Postemergence): 0; Wheat plant response rating (0 to 100 scale) [14, 19]: 0; Wheat plant response rating ([14]; Postemergence): 0; Foxtail, Giant plant response rating (0 to 100 scale) [15]: 60; Foxtail, Giant plant response rating [15]: 40; Plant response rating, Barnyardgrass (0 to 100 scale, 0 is no effect, 100 is complete control) [16]: 0; Plant response rating, Ducksalad (0 to 100 scale, 0 is no effect, 100 is complete control) [17]: 0; Plant response rating, Rice (0 to 100 scale, 0 is no effect, 100 is complete control) (rice (Oryza sativa)): 0; Plant response rating, Sedge, Umbrella (0 to 100 scale, 0 is no effect, 100 is complete control) [18]: 0 |
| CO/N=C(\c1ccc(F)cc1C)c1c(O)c(C)nn(C)c1=O [Compound 72] | 0 | 0 | 0 | 0 | 0 | 20 | 0 | 20 | 0 | 40 | 0 | 10 | 0 | 20 | 0 | 0 | 70 | 70 | 60 | 20 | Ragweed plant response rating (0 to 100 scale) [11]: 70; Ragweed plant response rating [11]: 40; Corn plant response rating (0 to 100 scale) (corn (Zea mays)): 20; Corn plant response rating (corn (Zea mays)): 0; Pigweed plant response rating (0 to 100 scale) [12]: 80; Pigweed plant response rating [12]: 30; Ryegrass, Italian plant response rating (0 to 100 scale) [13, 19]: 40; Ryegrass, Italian plant response rating ([13]; Postemergence): 0; Wheat plant response rating (0 to 100 scale) [14, 19]: 20; Wheat plant response rating ([14]; Postemergence): 0; Foxtail, Giant plant response rating (0 to 100 scale) [15]: 10; Foxtail, Giant plant response rating [15]: 0; Plant response rating, Barnyardgrass (0 to 100 scale, 0 is no effect, 100 is complete control) [16]: 0; Plant response rating, Ducksalad (0 to 100 scale, 0 is no effect, 100 is complete control) [17]: 0; Plant response rating, Rice (0 to 100 scale, 0 is no effect, 100 is complete control) (rice (Oryza sativa)): 0; Plant response rating, Sedge, Umbrella (0 to 100 scale, 0 is no effect, 100 is complete control) [18]: 0 |
| CO/N=C(/c1cscc1C)c1c(O)c(C)nn(C)c1=O [Compound 140] | 0 | 0 | 0 | 0 | 10 | 50 | 0 | 90 | 20 | 50 | 0 | 10 | 0 | 0 | 20 | 0 | 70 | 70 | 60 | 20 | Ragweed plant response rating (0 to 100 scale) [11]: 70; Ragweed plant response rating [11]: 50; Corn plant response rating (0 to 100 scale) (corn (Zea mays)): 20; Corn plant response rating (corn (Zea mays)): 10; Pigweed plant response rating (0 to 100 scale) [12]: 90; Pigweed plant response rating [12]: 80; Ryegrass, Italian plant response rating (0 to 100 scale) [13, 19]: 60; Ryegrass, Italian plant response rating (0 to 100 scale) ([13]; Postemergence, rate not given, approx. 10 days): 10; Wheat plant response rating (0 to 100 scale) [14, 19]: 0; Wheat plant response rating (0 to 100 scale) ([14]; Postemergence, approx. 10 days): 0; Foxtail, Giant plant response rating (0 to 100 scale) [15]: 30; Foxtail, Giant plant response rating [15]: 10; Plant response rating, Barnyardgrass (0 to 100 scale, 0 is no effect, 100 is complete control) [16]: 0; Plant response rating, Ducksalad (0 to 100 scale, 0 is no effect, 100 is complete control) [17]: 0; Plant response rating, Rice (0 to 100 scale, 0 is no effect, 100 is complete control) (rice (Oryza sativa)): 0; Plant response rating, Sedge, Umbrella (0 to 100 scale, 0 is no effect, 100 is complete control) [18]: 0 |
| CO/N=C(/c1ccccc1F)c1c(O)c(C)nn(C)c1=O [Compound 62] | 0 | 0 | 0 | 0 | 0 | 30 | 0 | 0 | 10 | 40 | 0 | 0 | 10 | 10 | 0 | 0 | 70 | 20 | 20 | 0 | Ragweed plant response rating (0 to 100 scale) [11]: 40; Ragweed plant response rating [11]: 20; Corn plant response rating (0 to 100 scale) (corn (Zea mays)): 0; Corn plant response rating (corn (Zea mays)): 0; Pigweed plant response rating (0 to 100 scale) [12]: 30; Pigweed plant response rating [12]: 10; Ryegrass, Italian plant response rating (0 to 100 scale) [13, 19]: 20; Ryegrass, Italian plant response rating ([13]; Postemergence): 0; Wheat plant response rating (0 to 100 scale) [14, 19]: 0; Wheat plant response rating ([14]; Postemergence): 0; Foxtail, Giant plant response rating (0 to 100 scale) [15]: 10; Foxtail, Giant plant response rating [15]: 0; Plant response rating, Barnyardgrass (0 to 100 scale, 0 is no effect, 100 is complete control) [16]: 0; Plant response rating, Ducksalad (0 to 100 scale, 0 is no effect, 100 is complete control) [17]: 0; Plant response rating, Rice (0 to 100 scale, 0 is no effect, 100 is complete control) (rice (Oryza sativa)): 0; Plant response rating, Sedge, Umbrella (0 to 100 scale, 0 is no effect, 100 is complete control) [18]: 0 |
